Measurements published in patent US20160230227A1, “METHODS OF TREATING ALZHEIMER'S DISEASE” (THE NEW YORK STEM CELL FOUNDATION, priority 2012, published 2016).

Tests used:
[1] = target: T1, γ-secretase (Homo sapiens, UniProt P49768); experiment: Aβ production in conditioned media by ELISA; assay type: cell-based; conditions: 10 μM, control and PS1 cells
T1 construct: endogenous in cells

[2] = cited from earlier work
[3] = tested on: Na+ channels; assay type: cell-based, human
[4] = tested on: 7889O neurons; assay type: cell-based, human
[5] = tested on: adult SVZ neural progenitor cells; experiment: Primary neurosphere formation of adult SVZ progenitors; assay type: cell-based; conditions: eight-week old mice, in the presence of EGF and FGF, 10 days in vitro, p=0.04
Method: (§1) This supports a potential pro-neurogenic role for NDP in adult neurogenesis.
Adult FVB/N mice were killed by cervical dislocation (n=3 per preparation) and their brains removed and placed into Pipes buffer (20 mM Pipes, 25 mM glucose, 0.12M NaCl, 0.5 mM KCl [ph 7.4]). The lateral walls of the lateral ventricles were dissected, collected in Pipes buffer and incubated in a mixture containing 1.2 mL of activated papain and 8.8 ml of Pipes buffer. Papain was activated 20 min in advance by placing 3 mg of papain (Worthington Biochemical) in 1 ml of 1.1 mM EDTA, 5.5 mM cysteine HCl. The pieces of tissue were incubated in papain solution at 37° C. on a rocking platform for 10 min and collected by centrifugation at 1300 rpm for 5 min. The cellular pellet was resuspended in 1 ml of DMEM-F12 (GIBCO) containing 0.7 mg of ovomucoid inhibitor and 1 mg of DNase. The cells were dissociated and neural precursor cells were separated from differentiated cells, myelin and extracellular matrix using density gradient separation by centrifugation step with 22% Percoll. […] The cells were counted and plated in 96well-low attachment plate (Corning) (1.5×10^5/mL) in the same medium containing 10 ng/mL of EGF receptor grade (Millipore) and 10 ng/mL human bFGF (Invitrogen). […] The numbers of neurospheres were counted for six 40× fields/well after 10 days in vitro. […]

[6] = tested on: human iPSC-derived NPCs; experiment: Proliferation of iPSC-derived NPCs (ki67 staining); assay type: cell-based; conditions: d14 NPCs; data not shown
Excerpt: as §1

[7] = tested on: K+ channels

C[C@H](NC(=O)Cc1cc(F)cc(F)c1)C(=O)N[C@H](C(=O)OC(C)(C)C)c1ccccc1 [DAPT]
Aβ production [1]: sufficient to block | Aβ production ([1]; listed as DapT): blocks

CC12CC3CC(C)(C1)CC(N)(C3)C2 [Memantine]
reported adverse events ([2]; in vivo): infrequent and mild | efficacy in treatment ([2]; moderate to severe Alzheimer's disease): moderately efficacious

NC1=N[C@H](O)[C@H]2[C@H]3O[C@]4(O)O[C@@H]([C@@H](O)[C@@]2(N1)[C@@H]4O)[C@]3(O)CO [TTX, tetrodotoxin]
action potentials [3]: blocked | inward currents [3]: blocked | kinetics of remaining Ca2+ transients [4]: generally slower

recombinant norrin: recombinant Norrin protein (R&D systems), product of NDP; secreted molecule activating canonical Wnt signaling via Frizzled-4
proliferation as measured by primary neurosphere formation [5]: increased proliferation | proliferation as measured by primary neurosphere formation ([5]; listed as recombinant Norrin protein): induces proliferation | proliferation (ki67 staining) [6]: did not show differences in proliferation

tetraethylammonium [TEA]
long lasting outward current after the fast inward current [7]: cancelled
